Experiments:
MDA-MB-468 [1] = test: Induction of apoptosis in human MDA-MB-468 cells assessed as total apoptotic cells at IC50 incubated for 24 hrs by Annexin V/PI staining based flow cytometry (reference value: 2.28 %); format: functional
MDA-MB-468 [2] = test: Induction of apoptosis in human MDA-MB-468 cells assessed as late apoptotic cells at IC50 incubated for 24 hrs by Annexin V/PI staining based flow cytometry (reference value: 0.17 %); format: functional
MDA-MB-468 [3] = test: Induction of cell cycle arrest in human MDA-MB-468 cells assessed as decrease in cell population at G0 to G1 phase at IC50 incubated for 24 hrs by RNase/PI staining based flow cytometry relative to control; format: functional; parameters: scale not given: the % may be the effect or the level left
MDA-MB-468 [4] = test: Induction of cell cycle arrest in human MDA-MB-468 cells assessed as accumulation of cells at G0 to G1 phase at IC50 incubated for 24 hrs by RNase/PI staining based flow cytometry (reference value: 59.02 %); format: functional
MDA-MB-468 [5] = test: Induction of cell cycle arrest in human MDA-MB-468 cells assessed as decrease in cell population at G2/M phase at IC50 incubated for 24 hrs by RNase/PI staining based flow cytometry relative to control; format: functional; parameters: scale not given: the % may be the effect or the level left
MDA-MB-468 [6] = test: Induction of apoptosis in human MDA-MB-468 cells assessed as fold increase in caspase-3 level incubated for 2 hrs by ELISA relative to control; format: functional
MDA-MB-468 [7] = test: Induction of apoptosis in human MDA-MB-468 cells assessed as early apoptotic cells at IC50 incubated for 24 hrs by Annexin V/PI staining based flow cytometry (reference value: 0.52 %); format: functional
MDA-MB-468 [8] = test: Induction of apoptosis in human MDA-MB-468 cells assessed as increase in caspase-3 level incubated for 2 hrs by ELISA (reference value: 2.109 ng/ml); format: functional
MDA-MB-468 [9] = test: Induction of cell cycle arrest in human MDA-MB-468 cells assessed as accumulation of cells at S phase at IC50 incubated for 24 hrs by RNase/PI staining based flow cytometry (reference value: 24.85 %); format: functional
MDA-MB-468 [10] = test: Induction of cell cycle arrest in human MDA-MB-468 cells assessed as fold increase in cell population at S phase at IC50 incubated for 24 hrs by RNase/PI staining based flow cytometry relative to control; format: functional
MDA-MB-468 [11] = test: Induction of cell cycle arrest in human MDA-MB-468 cells assessed as accumulation of cells at G2/M phase at IC50 incubated for 24 hrs by RNase/PI staining based flow cytometry (reference value: 16.13 %); format: functional
HUVEC = test: Antiangiogenic activity against HUVEC cells assessed as decrease in healing rate at IC50 incubated for 72 hrs by wound healing assay relative to control; format: functional, Homo sapiens; parameters: scale not given: the % may be the effect or the level left

Cc1nc2c(cnn2-c2ccccc2)c(=O)n1-c1ccc(NC(=O)c2ccc(F)cc2)cc1
Activity (MDA-MB-468 [1]): 43.28% | Activity (MDA-MB-468 [2]): 22.49% | Activity (MDA-MB-468 [3]): 10.43% | Activity (MDA-MB-468 [4]): 52.86% | Activity (MDA-MB-468 [5]): 43.46% | fold change (FC) (MDA-MB-468 [6]): 7.32 | Activity (MDA-MB-468 [7]): 15.85% | Activity (MDA-MB-468 [8]): 15.44 ng/mL | Activity (MDA-MB-468 [9]): 38.02% | fold change (FC) (MDA-MB-468 [10]): 1.53 | Activity (MDA-MB-468 [11]): 9.12% | Activity (HUVEC): 23%
